These results are taken from patent US20230271938A1, “BENZIMIDAZOLES FOR USE IN THE TREATMENT OF CANCER AND INFLAMMATORY DISEASES” (Capella Therapeutics, Inc., priority 2015, published 2023).

As a reminder, the GI50 is the concentration giving 50% growth inhibition. Higher therefore signals less potent growth inhibition. As usually defined, the IC50 is the concentration at which inhibition is half-maximal. The low end stands for greater potency, the high end for weaker potency.

Some results are limits rather than exact numbers.

Assay [1] deals with H1975 human NSCLC adenocarcinoma cells (drug-resistant mutant ERBB1, T790M in-cis with L858R). The experiment in a line: Cell proliferation assay, H1975. Type of assay: cell-based. Here is the method:
(§1) The biological activity of a test compound was determined using cell proliferation assays. The activity against wild-type ERBB 1 was determined using A431 human epidermoid carcinoma cells (ATCC) and human epidermal keratinocytes, neonatal, or HEKn cells (ATCC).
(§2) A431 cells were grown in DMEM (Invitrogen) supplemented with 10% FBS (Lonza), 1% penicillin-streptomycin, and 2 mM glutamine (Invitrogen). HEKn cells were grown in EPILIFE® (Invitrogen) supplemented with HKGS (Invitrogen). HCC827 and H1975 were cultured in RPMI1640 supplemented with 10% FBS (Lonza), 1% penicillin-streptomycin, and 2 mM glutamine (Invitrogen). Cells were maintained and propagated at 37° C. and 5% CO2 in a humidified cell culture incubator. Aliquots of cells from early passages were preserved for liquid nitrogen storage. Frozen vials of cells were thawed at 37° C. water bath. Cells were spun to remove freezing medium. The newly revived frozen cells were adapted in culture for 10 days before used for compound testing. Cells used in the assay were less than 20 subculture passages or 3 months in culture.
(§3) The test compounds were dissolved in dimethylsulfoxide (DMSO) and stored at -20° C. before testing. […] The cells were placed in a culture incubator overnight. Next day, test compounds in DMSO were added to the cells and placed back in the culture incubator for 72 hrs. In the meantime, the cell numbers at time zero of the compound treatment (T0) was measured by ENERCOUNT® (Codex BioSolutions). At the end of the compound treatment, the cell numbers were again measured by EnerCount as T72 values. The untreated controls (Ctrl) were cell numbers recorded from the 0.1% DMSO treatment. The percent growth inhibition by the test compound was calculated by the formula: (1- (T72-T0)/(Ctrl-T0)) x 100.
(§4) The results are summarized in Tables 1 and 2, wherein A represents a value no greater than 500 nM, B represents a value greater than 500 nM but no greater than 1 µM, C represents a value greater than 1 µM but no greater than 5 µM, and D represents a value greater than 5 µM; and wherein A′ represents a ratio of greater than 10, B′ represents a ratio of no greater than 10 but no less than 5, C′ represents a ratio of no greater than 5 but no less than 2, and D′ represents a ratio of no greater than 2.

The target of assay [2] is PIK3C-D (Homo sapiens, UniProt O00329). Description: Inhibition of PIK3C-D kinase. In kind it is biochemical. From the text:
(§5) The Z′-LYTE® biochemical assay is a fluorescence-based, coupled-enzyme assay based on the differential sensitivity of phosphorylated and non-phosphorylated peptides to proteolytic cleavage. A peptide substrate for a kinase is labeled with two fluorophores, one at each end, to form a FRET pair.
In the primary reaction, the kinase transfers the gamma-phosphate of ATP to a single tyrosine, serine, or threonine residue in the synthetic FRET-peptide substrate. In the secondary reaction, a site-specific protease recognizes and cleaves non-phosphorylated FRET-peptides. Cleavage disrupts FRET between the donor and acceptor fluorophores on the FRET-peptide, whereas uncleaved, phosphorylated FRET-peptides maintain FRET. An inhibitory activity of a compound is thus determined from its effect on the cleavage of the synthetic FRET-peptide substrate.
(§6) Binding of an ALEXA FLUOR® conjugate or “tracer” to a kinase is detected by addition of a Eu-labeled anti-tag antibody. […] An inhibitory activity of a compound is thus determined from the extent of the FRET signal loss. Inhibition of ITK and TEC kinases by a test compound is determined in the presence of 1% DMSO.
(§7) Inhibition of BMX, BTK, PIK3C-D, ITK, TEC, and TXK kinases by compound A2 was measured using one of the assays described in Examples 2A and 3A.

The subject of assay [3] is HCC827 human NSCLC adenocarcinoma cells (mutant ERBB1, deletion of E746-A759 in exon 19). The experiment in a line: Cell proliferation assay, HCC827. Type of assay: cell-based. Here is the method:
as §1, §2, §3, §4

Assay [4] deals with T1, ITK (Homo sapiens, UniProt Q08881).
T1 sequence (Q08881 1-620): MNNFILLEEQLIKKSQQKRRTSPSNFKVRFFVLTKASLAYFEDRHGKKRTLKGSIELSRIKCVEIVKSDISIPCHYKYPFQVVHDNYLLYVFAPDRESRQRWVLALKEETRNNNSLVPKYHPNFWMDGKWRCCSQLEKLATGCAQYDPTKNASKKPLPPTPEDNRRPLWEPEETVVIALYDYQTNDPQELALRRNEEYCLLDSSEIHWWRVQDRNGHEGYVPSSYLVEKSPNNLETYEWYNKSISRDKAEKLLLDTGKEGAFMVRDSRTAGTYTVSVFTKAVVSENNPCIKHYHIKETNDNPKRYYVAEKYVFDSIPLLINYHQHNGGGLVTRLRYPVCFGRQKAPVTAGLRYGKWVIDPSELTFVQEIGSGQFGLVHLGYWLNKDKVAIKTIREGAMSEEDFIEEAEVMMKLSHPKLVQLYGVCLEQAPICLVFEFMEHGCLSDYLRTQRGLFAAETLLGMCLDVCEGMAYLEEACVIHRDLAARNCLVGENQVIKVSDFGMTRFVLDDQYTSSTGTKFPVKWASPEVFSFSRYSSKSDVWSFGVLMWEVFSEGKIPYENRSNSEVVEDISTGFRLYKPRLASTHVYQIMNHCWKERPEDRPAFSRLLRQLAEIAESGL
Description: Inhibition of ITK kinase. Type of assay: biochemical. As to conditions: 1% DMSO.
Source text: as §5
In the primary reaction, the kinase transfers the gamma-phosphate of ATP to a single tyrosine, serine, or threonine residue in the synthetic FRET-peptide substrate. In the secondary reaction, a site-specific protease recognizes and cleaves non-phosphorylated FRET-peptides. […] An inhibitory activity of a compound is thus determined from its effect on the cleavage of the synthetic FRET-peptide substrate.
Inhibition of BMX, BTK, ITK, and TXK kinases by a test compound is determined in 50 mM HEPES, pH 7.5, 0.01% BRIJ-35, 10 mM MgCl2, and 1 mM EGTA in the presence of 1% DMSO by volume.
as §6, §7

Chain of PIK3C-D (O00329 whole entry): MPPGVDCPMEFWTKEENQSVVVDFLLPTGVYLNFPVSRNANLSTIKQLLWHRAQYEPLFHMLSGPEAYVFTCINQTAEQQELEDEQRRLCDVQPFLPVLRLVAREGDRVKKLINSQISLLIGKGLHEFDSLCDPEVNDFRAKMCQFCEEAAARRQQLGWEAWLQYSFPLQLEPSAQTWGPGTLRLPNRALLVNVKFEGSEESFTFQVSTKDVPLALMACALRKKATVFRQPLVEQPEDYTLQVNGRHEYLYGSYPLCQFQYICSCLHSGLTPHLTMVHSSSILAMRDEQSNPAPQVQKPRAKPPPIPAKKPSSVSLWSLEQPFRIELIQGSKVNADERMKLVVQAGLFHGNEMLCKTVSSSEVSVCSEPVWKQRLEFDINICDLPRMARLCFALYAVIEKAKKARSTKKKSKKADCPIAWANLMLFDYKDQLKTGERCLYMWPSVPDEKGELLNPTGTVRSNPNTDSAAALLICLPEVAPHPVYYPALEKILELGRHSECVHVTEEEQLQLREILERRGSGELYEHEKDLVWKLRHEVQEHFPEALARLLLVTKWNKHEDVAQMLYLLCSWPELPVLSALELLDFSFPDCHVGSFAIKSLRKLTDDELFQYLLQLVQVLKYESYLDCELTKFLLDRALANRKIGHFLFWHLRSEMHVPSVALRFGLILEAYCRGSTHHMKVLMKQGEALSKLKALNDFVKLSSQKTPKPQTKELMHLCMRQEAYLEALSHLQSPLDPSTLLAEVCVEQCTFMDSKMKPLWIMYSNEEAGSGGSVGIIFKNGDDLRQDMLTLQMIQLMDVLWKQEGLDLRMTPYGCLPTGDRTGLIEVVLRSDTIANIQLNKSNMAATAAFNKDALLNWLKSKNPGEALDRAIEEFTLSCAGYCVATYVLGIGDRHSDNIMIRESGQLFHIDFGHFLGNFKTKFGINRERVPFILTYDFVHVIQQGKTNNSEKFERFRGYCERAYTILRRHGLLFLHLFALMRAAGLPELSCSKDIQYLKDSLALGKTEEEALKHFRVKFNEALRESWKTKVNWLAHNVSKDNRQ
Chain of PIK3C-D (P27986 whole entry partner): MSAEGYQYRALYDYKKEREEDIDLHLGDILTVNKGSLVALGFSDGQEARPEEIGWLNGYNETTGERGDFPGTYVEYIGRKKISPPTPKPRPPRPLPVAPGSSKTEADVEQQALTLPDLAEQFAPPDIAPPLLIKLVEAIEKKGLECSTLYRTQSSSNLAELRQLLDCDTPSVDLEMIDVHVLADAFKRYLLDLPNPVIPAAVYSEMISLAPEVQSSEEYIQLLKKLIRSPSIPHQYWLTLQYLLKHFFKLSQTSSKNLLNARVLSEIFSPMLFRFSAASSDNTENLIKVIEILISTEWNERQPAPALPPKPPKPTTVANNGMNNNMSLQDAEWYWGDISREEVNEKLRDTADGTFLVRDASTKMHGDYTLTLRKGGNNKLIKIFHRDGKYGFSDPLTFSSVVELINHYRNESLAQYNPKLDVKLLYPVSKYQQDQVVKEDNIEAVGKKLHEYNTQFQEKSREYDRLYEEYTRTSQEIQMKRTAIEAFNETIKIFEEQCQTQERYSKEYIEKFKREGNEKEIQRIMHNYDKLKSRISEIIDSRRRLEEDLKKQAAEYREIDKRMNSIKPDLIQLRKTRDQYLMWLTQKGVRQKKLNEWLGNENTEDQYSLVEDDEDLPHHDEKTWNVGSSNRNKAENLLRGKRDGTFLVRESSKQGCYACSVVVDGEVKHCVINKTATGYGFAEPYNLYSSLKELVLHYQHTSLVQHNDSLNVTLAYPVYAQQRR

For `C=CC(=O)N1CCCC[C@@H](n2c(NC(=O)c3ccnc(C)c3)nc3cccc(OC4CCN(C(C)=O)CC4)c32)C1` [Compound A2, (R)-N-(7-((1-acetylpiperidin-4-yl)oxy)-1-(1-acryloylazepan-3-yl)-1H-benzo[d]imidazol-2-yl)-2-methylisonicotinamide], the “Ratio (Wild-type ERBB1/Mutant ERBB1) A431/H1975” value in assay [1] (GI50 ratio A431/H1975) is reported as “B′ (B′ represents a ratio of no greater than 10 but no less than 5)”. In addition, in assay [1] (GI50 ratio HEKn/H1975), the “Ratio (Wild-type ERBB1/Mutant ERBB1) HEKn/H1975” value is listed as “A′ (A′ represents a ratio of greater than 10)”. Also, the GI50 in assay [1] (Homo sapiens, NCI-H1975, H1975 cells, 72 hrs) is < 500 nM; in assay [3] (Homo sapiens, HCC827 cells, 72 hrs), < 500 nM. The IC50 in assay [2] and in assay [4] was ≤ 10 nM in each case. The Inhibition result in assay [2] and in assay [4] was “A (A represents a value no greater than 10 nM or no less than 90% inhibition)” each time. Also, the “Ratio (Wild-type ERBB1/Mutant ERBB1) A431/HCC827” value in assay [3] (GI50 ratio A431/HCC827) is recorded as “A′ (A′ represents a ratio of greater than 10)”. In addition, in assay [3] (GI50 ratio HEKn/HCC827), the “Ratio (Wild-type ERBB1/Mutant ERBB1) HEKn/HCC827” value is “A′ (A′ represents a ratio of greater than 10)”.
